Results reported in ChEMBL document CHEMBL1201862, “PubChem BioAssay data set” (2004).
The source made the active and inactive calls.

What was measured:
[1] = biological target: Mitogen-activated protein kinase 14 (Homo sapiens, UniProt Q16539); format: functional;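 also: part of a kinome-wide panel, MAPK14 entry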
[2] = biological target: Serine/threonine-protein kinase 3 (Homo sapiens, UniProt Q13188); format: functional;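 also: measured as one member of a kinome-wide kinase panel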
[3] = biological target: Mitogen-activated protein kinase kinase kinase kinase 5 (Homo sapiens, UniProt Q9Y4K4); format: functional;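 also: measured as one member of a kinome-spanning kinase panel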
[4] = biological target: Homeodomain-interacting protein kinase 2 (Homo sapiens, UniProt Q9H2X6); format: functional;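 also: measured within a kinome-wide kinase profiling panel, HIPK2 being one panel member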
[5] = biological target: Casein kinase I isoform alpha (Homo sapiens, UniProt P48729); format: functional
Sequence of Casein kinase I isoform alpha (P48729 whole entry, canonical isoform): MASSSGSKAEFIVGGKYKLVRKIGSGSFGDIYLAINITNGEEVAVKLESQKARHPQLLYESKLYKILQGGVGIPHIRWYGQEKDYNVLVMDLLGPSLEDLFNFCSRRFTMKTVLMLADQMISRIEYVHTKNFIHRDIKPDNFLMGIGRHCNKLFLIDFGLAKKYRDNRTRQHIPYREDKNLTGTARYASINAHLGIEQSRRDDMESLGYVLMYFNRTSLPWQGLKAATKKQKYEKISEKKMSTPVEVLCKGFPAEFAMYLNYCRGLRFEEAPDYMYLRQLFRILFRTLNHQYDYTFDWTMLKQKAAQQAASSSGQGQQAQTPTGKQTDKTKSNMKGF

[6] = biological target: Serine/threonine-protein kinase 17A (Homo sapiens, UniProt Q9UEE5); format: functional
Misshapen-like kinase 1 = Misshapen-like kinase 1 (Homo sapiens, UniProt Q8N4C8); format: functional;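 also: kinome panel screen with MINK as the panel member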
[7] = biological target: Mitogen-activated protein kinase 9 (Homo sapiens, UniProt P45984); format: functional;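 also: value from a kinome panel profiling assay, MAPK9 panel entry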
Sequence of Mitogen-activated protein kinase 9 (P45984 whole entry): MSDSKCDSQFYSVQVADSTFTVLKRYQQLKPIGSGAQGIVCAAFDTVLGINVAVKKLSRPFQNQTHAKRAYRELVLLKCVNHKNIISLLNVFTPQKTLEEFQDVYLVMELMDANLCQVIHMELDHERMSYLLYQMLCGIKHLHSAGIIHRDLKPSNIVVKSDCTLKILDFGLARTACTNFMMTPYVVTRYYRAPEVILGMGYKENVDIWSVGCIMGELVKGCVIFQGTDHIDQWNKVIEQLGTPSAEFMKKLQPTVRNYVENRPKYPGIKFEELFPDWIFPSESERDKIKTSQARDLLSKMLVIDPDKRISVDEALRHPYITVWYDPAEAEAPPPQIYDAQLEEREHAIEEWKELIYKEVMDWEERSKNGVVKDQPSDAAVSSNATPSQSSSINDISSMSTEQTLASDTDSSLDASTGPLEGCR

[8] = biological target: Cell division cycle 7-related protein kinase (Homo sapiens, UniProt O00311); format: functional;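 also: value obtained from a kinome-wide kinase panel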
Focal adhesion kinase 1 = Focal adhesion kinase 1 (Homo sapiens, UniProt Q05397); format: functional;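 also: measured as one member of a kinome panel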
[9] = biological target: Tyrosine-protein kinase HCK (Homo sapiens, UniProt P08631); experiment: Navigating the Kinome. Panel member name: HCK; format: functional
Large T antigen = Large T antigen (Simian virus 40, UniProt P03070); format: functional, Betapolyomavirus macacae;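 also: Confirmatory-stage PubChem screen for compounds that inhibit SV40 T antigen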
[10] = biological target: Platelet-derived growth factor receptor beta (Homo sapiens, UniProt P09619); format: functional;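 also: value comes from a kinome panel, with PDGFRB tested as one panel member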
Sequence of Platelet-derived growth factor receptor beta (P09619 whole entry): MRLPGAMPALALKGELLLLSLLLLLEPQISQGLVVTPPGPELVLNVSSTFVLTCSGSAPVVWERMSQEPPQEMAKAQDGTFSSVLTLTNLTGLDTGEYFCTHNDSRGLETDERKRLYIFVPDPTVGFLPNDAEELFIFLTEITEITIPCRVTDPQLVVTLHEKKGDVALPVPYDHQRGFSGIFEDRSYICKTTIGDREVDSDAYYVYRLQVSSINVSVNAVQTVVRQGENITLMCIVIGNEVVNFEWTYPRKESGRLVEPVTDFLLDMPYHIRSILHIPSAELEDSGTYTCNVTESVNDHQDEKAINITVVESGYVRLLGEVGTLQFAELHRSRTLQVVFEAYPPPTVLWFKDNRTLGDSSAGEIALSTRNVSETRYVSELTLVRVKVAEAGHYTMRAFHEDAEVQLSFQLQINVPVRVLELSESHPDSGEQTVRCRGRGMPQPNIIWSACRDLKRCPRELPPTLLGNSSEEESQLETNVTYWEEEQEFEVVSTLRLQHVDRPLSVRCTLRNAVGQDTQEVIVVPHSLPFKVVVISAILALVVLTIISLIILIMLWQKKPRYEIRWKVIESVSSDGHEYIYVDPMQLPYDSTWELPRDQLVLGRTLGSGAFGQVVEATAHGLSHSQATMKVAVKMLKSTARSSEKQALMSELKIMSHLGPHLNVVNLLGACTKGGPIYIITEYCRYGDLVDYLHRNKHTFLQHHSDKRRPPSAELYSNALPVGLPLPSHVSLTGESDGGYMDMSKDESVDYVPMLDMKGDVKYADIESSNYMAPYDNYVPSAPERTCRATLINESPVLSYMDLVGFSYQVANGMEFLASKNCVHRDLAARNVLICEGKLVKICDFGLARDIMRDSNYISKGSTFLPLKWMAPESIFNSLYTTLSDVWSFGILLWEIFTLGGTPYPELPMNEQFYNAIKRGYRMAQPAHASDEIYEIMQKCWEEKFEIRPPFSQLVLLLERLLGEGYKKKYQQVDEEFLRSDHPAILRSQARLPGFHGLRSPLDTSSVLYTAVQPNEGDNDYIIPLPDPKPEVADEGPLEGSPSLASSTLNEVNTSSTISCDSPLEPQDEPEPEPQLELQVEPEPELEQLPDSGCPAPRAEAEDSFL

[11] = biological target: Tyrosine-protein kinase Lck (Homo sapiens, UniProt P06239); format: functional;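 also: lck was assayed as one member of a kinase panel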
Sequence of Tyrosine-protein kinase Lck (P06239 whole entry): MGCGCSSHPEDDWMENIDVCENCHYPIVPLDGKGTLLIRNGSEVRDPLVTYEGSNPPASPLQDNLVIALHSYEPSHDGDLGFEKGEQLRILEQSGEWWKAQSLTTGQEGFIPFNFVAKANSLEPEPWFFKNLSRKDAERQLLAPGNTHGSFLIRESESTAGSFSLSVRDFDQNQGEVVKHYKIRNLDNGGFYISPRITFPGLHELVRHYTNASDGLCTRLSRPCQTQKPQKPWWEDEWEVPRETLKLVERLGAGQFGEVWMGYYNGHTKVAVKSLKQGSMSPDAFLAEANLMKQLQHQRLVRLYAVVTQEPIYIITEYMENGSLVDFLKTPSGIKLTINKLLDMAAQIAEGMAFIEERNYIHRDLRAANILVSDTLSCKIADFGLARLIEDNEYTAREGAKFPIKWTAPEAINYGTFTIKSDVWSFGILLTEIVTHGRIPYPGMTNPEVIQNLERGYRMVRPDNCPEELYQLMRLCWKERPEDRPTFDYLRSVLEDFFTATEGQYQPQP

[12] = biological target: Tyrosine-protein kinase ABL1 (Homo sapiens, UniProt P00519); format: functional
Sequence of Tyrosine-protein kinase ABL1 (P00519 whole entry, the tested form may be a part): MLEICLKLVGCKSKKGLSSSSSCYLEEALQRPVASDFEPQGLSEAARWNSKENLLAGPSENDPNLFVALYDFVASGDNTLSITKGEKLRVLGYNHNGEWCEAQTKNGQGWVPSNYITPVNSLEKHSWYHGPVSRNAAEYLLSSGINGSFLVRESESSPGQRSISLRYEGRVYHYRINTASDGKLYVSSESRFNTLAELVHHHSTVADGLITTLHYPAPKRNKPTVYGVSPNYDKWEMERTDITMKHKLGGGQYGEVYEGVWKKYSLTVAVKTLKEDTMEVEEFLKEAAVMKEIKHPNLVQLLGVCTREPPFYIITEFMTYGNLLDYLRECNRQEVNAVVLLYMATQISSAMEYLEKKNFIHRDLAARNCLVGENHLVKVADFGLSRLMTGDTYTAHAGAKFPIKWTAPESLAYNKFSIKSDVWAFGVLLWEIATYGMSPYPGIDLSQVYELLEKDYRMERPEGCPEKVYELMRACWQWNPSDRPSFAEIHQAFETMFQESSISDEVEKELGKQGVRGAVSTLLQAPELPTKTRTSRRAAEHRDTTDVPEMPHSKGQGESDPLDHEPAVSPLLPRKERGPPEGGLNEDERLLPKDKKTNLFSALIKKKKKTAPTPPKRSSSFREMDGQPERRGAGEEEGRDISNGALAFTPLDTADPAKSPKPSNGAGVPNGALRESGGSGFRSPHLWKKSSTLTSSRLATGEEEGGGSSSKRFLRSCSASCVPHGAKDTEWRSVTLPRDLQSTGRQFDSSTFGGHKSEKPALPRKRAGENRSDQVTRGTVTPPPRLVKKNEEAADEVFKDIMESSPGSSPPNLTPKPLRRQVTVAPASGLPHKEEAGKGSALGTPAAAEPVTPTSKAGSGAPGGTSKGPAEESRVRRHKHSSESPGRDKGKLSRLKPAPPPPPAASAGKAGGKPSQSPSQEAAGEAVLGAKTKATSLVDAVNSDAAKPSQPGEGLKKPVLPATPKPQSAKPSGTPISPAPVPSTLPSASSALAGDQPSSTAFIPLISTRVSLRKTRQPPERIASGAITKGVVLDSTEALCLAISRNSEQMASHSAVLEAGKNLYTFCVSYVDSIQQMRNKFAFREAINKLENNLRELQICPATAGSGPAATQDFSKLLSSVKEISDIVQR

LIM domain kinase 1 = LIM domain kinase 1 (Homo sapiens, UniProt P53667); experiment: Navigating the Kinome. Panel member name: LIMK1; format: functional
Sequence of LIM domain kinase 1 (P53667 whole entry, the tested form may be a part): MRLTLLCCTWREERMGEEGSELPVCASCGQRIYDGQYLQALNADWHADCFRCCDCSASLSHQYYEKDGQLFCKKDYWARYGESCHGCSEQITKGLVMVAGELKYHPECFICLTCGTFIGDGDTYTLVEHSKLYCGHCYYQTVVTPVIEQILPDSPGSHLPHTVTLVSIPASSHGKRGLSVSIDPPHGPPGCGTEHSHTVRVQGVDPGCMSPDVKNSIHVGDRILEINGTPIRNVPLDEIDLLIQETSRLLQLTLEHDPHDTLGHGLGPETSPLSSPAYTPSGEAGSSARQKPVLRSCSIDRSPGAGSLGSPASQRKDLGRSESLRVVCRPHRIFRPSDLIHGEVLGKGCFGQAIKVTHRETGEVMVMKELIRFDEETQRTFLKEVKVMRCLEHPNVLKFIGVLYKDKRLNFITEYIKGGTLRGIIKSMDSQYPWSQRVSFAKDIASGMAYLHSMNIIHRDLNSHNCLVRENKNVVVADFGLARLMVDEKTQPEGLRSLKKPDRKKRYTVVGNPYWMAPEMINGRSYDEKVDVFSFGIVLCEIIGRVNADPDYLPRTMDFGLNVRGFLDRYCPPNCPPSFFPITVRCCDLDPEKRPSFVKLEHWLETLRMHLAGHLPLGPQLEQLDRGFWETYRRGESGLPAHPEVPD

[13] = biological target: T1, Sentrin-specific protease 8 (Homo sapiens, UniProt Q96LD8); format: functional;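 also: kinetic enzyme assay of SENP8 cleaving a Nedd8 protein substrate, dose-response confirmation of screening hits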
T1 sequence (Q96LD8 whole entry): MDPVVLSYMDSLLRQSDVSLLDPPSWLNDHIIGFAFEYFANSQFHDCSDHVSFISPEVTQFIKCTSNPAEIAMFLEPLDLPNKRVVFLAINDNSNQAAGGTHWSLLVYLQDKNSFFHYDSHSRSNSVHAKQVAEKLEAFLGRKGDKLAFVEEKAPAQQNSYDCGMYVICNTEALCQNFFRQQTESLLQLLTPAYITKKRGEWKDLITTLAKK

Protein RecA = biological target: T2, Protein RecA (Mycobacterium tuberculosis, UniProt P9WHJ3); experiment: Fluorescence Cell-Free Homogeneous Dose Retest to Identify Inhibitors of RecA-Intein Splicing Activity. [Related pubchem assays (depositor defined):AID2097, AID2223, AID489010, AID492950]; format: functional
T2 sequence (P9WHJ3 whole entry): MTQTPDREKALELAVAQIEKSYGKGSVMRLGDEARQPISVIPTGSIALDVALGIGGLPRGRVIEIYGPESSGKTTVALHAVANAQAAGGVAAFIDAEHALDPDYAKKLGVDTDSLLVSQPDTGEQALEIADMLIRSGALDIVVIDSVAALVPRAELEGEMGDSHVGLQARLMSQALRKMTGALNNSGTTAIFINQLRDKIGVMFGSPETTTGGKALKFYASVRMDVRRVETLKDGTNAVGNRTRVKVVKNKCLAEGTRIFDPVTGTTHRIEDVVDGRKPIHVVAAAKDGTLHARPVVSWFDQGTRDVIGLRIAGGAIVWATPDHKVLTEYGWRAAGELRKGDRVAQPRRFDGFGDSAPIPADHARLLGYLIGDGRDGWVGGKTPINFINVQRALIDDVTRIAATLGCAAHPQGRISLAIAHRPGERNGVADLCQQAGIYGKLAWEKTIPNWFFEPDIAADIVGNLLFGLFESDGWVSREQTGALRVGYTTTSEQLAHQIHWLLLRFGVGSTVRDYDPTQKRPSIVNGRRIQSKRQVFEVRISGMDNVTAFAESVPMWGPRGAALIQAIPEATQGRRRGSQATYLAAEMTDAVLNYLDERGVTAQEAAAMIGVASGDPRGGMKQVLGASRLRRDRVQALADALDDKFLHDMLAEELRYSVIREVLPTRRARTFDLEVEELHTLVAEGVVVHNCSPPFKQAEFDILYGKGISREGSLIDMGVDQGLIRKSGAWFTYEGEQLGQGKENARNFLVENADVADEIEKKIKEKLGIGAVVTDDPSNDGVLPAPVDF

[14] = biological target: T3, Zinc finger protein mex-5 (Caenorhabditis elegans, UniProt Q9XUB2); experiment: potency of MEX-5 RNA-binding blockers – biochemical, C. elegans, fluorescence polarization, dose response (AID 1960)
T3 sequence (Q9XUB2 whole entry): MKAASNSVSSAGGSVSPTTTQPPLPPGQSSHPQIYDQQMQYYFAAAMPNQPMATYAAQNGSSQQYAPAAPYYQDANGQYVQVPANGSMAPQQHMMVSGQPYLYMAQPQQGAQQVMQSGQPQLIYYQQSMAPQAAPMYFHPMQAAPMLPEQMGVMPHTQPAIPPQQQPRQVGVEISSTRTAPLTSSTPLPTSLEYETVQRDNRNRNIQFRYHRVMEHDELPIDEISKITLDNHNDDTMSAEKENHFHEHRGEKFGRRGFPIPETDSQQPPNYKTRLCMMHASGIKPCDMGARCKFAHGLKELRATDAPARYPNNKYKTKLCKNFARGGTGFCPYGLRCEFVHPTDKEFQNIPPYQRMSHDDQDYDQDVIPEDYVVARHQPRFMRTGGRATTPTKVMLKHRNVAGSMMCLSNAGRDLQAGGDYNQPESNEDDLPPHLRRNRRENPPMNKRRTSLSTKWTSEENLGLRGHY

[15] = biological target: NACHT, LRR and PYD domains-containing protein 1 (Homo sapiens, UniProt Q9C000); experiment: NALP1 inhibitors in yeast, dose response, luminescent (AID 488860); format: functional
Keap1/Nrf2 = Keap1/Nrf2 (Homo sapiens, UniProt Q14145); experiment: disruptors of Keap1 binding to Nrf2 peptide – biochemical, fluorescence polarization, cherry-picked samples, dose response (AID 588683)
[16] = biological target: Mitochondrial peptide methionine sulfoxide reductase (Bos taurus, UniProt P54149); experiment: Absorbance-based biochemical high throughput dose response assay for activators of Methionine sulfoxide reductase A (MsrA).; format: functional

Sequence of Mitogen-activated protein kinase 14 (Q16539 whole entry): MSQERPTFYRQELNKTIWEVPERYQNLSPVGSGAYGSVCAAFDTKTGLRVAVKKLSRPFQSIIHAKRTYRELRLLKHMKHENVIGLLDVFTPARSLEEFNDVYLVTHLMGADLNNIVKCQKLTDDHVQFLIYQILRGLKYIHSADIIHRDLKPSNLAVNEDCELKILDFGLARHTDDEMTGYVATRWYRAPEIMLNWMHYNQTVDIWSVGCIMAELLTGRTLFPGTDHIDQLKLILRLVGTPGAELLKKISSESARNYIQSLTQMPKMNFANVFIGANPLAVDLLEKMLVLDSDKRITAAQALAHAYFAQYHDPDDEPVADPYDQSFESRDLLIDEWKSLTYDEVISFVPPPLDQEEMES
Sequence of Serine/threonine-protein kinase 3 (Q13188 whole entry): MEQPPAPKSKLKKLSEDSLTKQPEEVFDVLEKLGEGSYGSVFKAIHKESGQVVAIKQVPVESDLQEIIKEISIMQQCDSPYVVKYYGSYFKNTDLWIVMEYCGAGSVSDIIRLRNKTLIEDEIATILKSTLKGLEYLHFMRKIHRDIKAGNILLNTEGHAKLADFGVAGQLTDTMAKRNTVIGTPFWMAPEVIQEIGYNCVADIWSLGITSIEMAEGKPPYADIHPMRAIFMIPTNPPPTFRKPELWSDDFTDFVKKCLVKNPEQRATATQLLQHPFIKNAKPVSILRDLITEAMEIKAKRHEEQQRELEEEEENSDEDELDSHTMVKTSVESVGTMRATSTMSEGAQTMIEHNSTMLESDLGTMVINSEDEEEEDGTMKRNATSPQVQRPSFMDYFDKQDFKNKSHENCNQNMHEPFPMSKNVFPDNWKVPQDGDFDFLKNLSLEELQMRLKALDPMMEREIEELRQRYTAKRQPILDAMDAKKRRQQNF

Row | SMILES | Ki [1] | Ki [2] | Ki [5] | Ki [7] | Ki [10] | Ki [11] | Ki [12] | Ki (LIM domain kinase 1) | further results
1 | CCCCC(=O)Nc1cc(-c2c[nH]c3ncccc23)cc(Cl)n1 | > 3.98 µM (inactive) | > 3.16 µM (inactive) | 0.794 µM (active) | > 3.98 µM (inactive) | – | – | – | – | Ki [3]: > 3.98 µM (inactive); Ki [4]: > 3.98 µM (inactive); Ki [6]: > 3.16 µM (inactive); Ki (Misshapen-like kinase 1): > 2.51 µM (inactive); Ki [8]: 0.000501 µM (active)
2 | Oc1ccc(-c2nc(-c3ccncc3)c(-c3ccc(F)cc3)[nH]2)cc1 [SB-202190] | – | > 2.51 µM (inactive) | 1 µM (active) | – | > 2 µM (inactive) | > 5.01 µM (inactive) | > 2.51 µM (inactive) | > 3.16 µM (inactive) | Ki (Focal adhesion kinase 1): > 3.98 µM (inactive); Ki [9]: > 3.16 µM (inactive); IC50 (Large T antigen): 4.87 µM (active)
3 | c1ccc2nc3cc4[nH]cnc4cc3nc2c1 | – | – | – | – | – | – | – | – | IC50 [13]: 10.8 µM (active); EC50 (Protein RecA): 29.6 µM (inconclusive); EC50 [14]: 1.74 µM (inconclusive); IC50 [15]: > 100 µM (inactive); AC50 (Keap1/Nrf2): 10.4 µM (active); EC50 [16]: 53 µM (inactive)
4 | COc1cccc(C(C)NC(=O)c2sc(-c3ccncc3)nc2C)c1 (stereo not given) | > 3.98 µM (inactive) | – | – | > 3.98 µM (inactive) | > 2 µM (inactive) | > 6.31 µM (inactive) | > 2.51 µM (inactive) | > 3.16 µM (inactive) | –
